Laboratory results: patent US20070232638A1, “Opiopathies” (priority 2006, published 2007)

Key:
[1] = tested on: paresis/paralysis; conditions: immediate or sustained release formulations; earlier application; cited from earlier work
[2] = tested on: central pain in MS patients; conditions: intravenous 1.0 mg/ml morphine in physiological saline, response only after high doses; cited from earlier work
[3] = tested on: MS, Lou Gherig's Disease and Parkinson's Disease; conditions: in vivo; cited from earlier work
[4] = tested on: paresis/paralysis of the tongue, larynx, pharynx, esophagus, urinary bladder sphincter, muscles of the lumbar and lumbo-sacral spine and of the pelvis and …; assay: Opiate treatment of dogs with neuropathic paresis/paralysis (UROS/OPS case studies); conditions: dog, in vivo
From the text: In order to clinically diagnose and/or evaluate the effectiveness of a dose of an anti-opiopathic active agent or formulation, over time, when being used to treat an opiopathic ailment, the following grading protocol can be employed to quantify and document function of the target muscle(s) and/or organ(s).
In grading the evaluations, an organ is considered to be neurologically normal when there is no neuropathology affecting its function. Because in most cases an organ can be clearly identified as having normal neurologic function, decreased neurologic function (paresis), or no neurologic function (paralysis), the documenting of the degree of remaining neurologic function of an organ lends itself to a simple grading system. An organ that functions normally and has no observable signs or symptoms is considered to be neurologically normal and receives the lowest score (0). An organ that has no function as a result of a neurologic/neurogenic ailment and is paralyzed, receives the highest score (10). An organ that has a partial loss of function (paresis) receives a score between (1) and (9), depending on the degree of function remaining. A decrease of the score of a function after administration of an anti-opiopathic active agent or formulation, indicates effectiveness roughly proportional to the relative decrease. […]

Question: With COc1ccc2c3c1O[C@H]1C(=O)CC[C@H]4[C@@H](C2)N(C)CC[C@]314 [hydrocodone] as the compound, how does the reversal of paresis/paralysis [1] read?
Answer: The reversal of paresis/paralysis was “successful reversal”.

Question: For CN1CC[C@]23c4c5ccc(O)c4O[C@H]2[C@@H](O)C=C[C@H]3[C@H]1C5.O=S(=O)(O)O [morphine sulfate], which reversal of paresis/paralysis [1] is on record?
Answer: Its reversal of paresis/paralysis is “successful reversal”.

Question: Which “responsiveness of neuropathic (central) pain” value [2] does the source give for CN1CC[C@]23c4c5ccc(O)c4O[C@H]2[C@@H](O)C=C[C@H]3[C@H]1C5 [morphine] here?
Answer: The value was “poorly responsive, but not totally unresponsive”.

Question: With O=C1CC[C@@]2(O)[C@H]3Cc4ccc(O)c5c4[C@@]2(CCN3CC2CC2)[C@H]1O5 [naltrexone] as the compound, how does the treatment outcome [3] read?
Answer: Its treatment outcome is “limited success”.

Question: With COc1ccc2c3c1O[C@H]1C(=O)CC[C@@]4(O)[C@@H](C2)N(C)CC[C@]314 [oxycodone] as the compound, how does the reversal of paresis/paralysis [1] read?
Answer: The reversal of paresis/paralysis was “successful reversal”.

Question: What about the “reversing paresis/paralysis in the larynx” value [4] of the same compound?
Answer: Its value is “effective”.

Question: What about the “treating urinary bladder sphincter paresis/paralysis” value [4] of the same compound?
Answer: The value was “effective”.
